The source of these data is ChEMBL document CHEMBL1151086, “Sulfobetaine zwitterionic inhibitors of squalene synthase” (Bioorg Med Chem Lett, 1996).

As usually defined, the IC50 is the point on the concentration scale where inhibition reaches its midpoint. A high value points to a need for much substance.

The target of one assay is T1, Squalene synthase (Rattus norvegicus, UniProt Q02769).
T1 sequence (Q02769 whole entry): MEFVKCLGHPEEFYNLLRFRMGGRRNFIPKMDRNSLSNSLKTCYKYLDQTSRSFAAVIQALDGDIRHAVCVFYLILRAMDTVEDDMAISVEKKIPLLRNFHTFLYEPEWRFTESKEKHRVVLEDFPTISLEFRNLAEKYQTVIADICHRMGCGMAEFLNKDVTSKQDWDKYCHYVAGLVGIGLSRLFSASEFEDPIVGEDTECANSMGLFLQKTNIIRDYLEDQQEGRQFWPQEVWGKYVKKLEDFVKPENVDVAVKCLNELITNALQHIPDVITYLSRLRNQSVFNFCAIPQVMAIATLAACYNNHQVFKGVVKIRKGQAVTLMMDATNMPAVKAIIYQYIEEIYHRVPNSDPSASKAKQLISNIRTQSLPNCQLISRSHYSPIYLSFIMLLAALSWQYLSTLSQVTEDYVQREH
Description: Compound was evaluated for its inhibitory activity against rat hepatic squalene synthase at a concentration of 1000 uM; NI = No inhibition.
For `C[N+](C)(CCCCS(=O)(=O)[O-])CCc1ccccc1`, the IC50 result is reported as “Not Active”.

For the compound `C[N+](C)(CCCCS(=O)(=O)[O-])Cc1ccccc1`, the IC50 result is recorded as “Not Active”.

The next assay addresses T1, Squalene synthase. Description: Inhibitory activity against rat hepatic squalene synthase.
`CC(C)=CCC/C(C)=C/CC/C(C)=C/C[N+](C)(C)CCCCS(=O)(=O)[O-]`: it took 15 µM to reach half-maximal inhibition (IC50). This counts as double-digit micromolar.

As for `C[N+](C)(CCCCc1ccc(-c2ccccc2)cc1)CCCCS(=O)(=O)[O-]`, inhibition was half-maximal at 25 µM (IC50).

`C[N+](C)(CCCCCCc1ccc(-c2ccccc2)cc1)CCCCS(=O)(=O)[O-]` showed an IC50 of 60 µM.

`C[N+](C)(CCCCCc1ccc(-c2ccccc2)cc1)CCCCS(=O)(=O)[O-]` came in with an IC50 of 5 µM.

Compound `C[N+](C)(CCCCCCCCCCc1ccccc1)CCCCS(=O)(=O)[O-]` had an IC50 of 6 µM.

As to `C[N+](C)(CCCCCCCCCc1ccccc1)CCCCS(=O)(=O)[O-]`, the IC50 was found to be 2 µM.

`C[N+](C)(CCCCCCCCc1ccccc1)CCCCS(=O)(=O)[O-]`: it took 8 µM to reach half-maximal inhibition (IC50).

`C[N+](C)(CCCCCCc1ccccc1)CCCCS(=O)(=O)[O-]`: the IC50 was 100 µM.
